Experimental findings from US6894053B2, “Serotonergic agents with long-acting in vivo effects” (Wyeth, priority 2001, dated 2005) are described below.

SMILES strings stand for the structures. Counter-ions that a name gives are not always drawn.

The target of data set [1] is T1, 5-HT1A (Rattus norvegicus, UniProt P19327).
T1 construct: from tissue; host or cells: rat brain (cortex and hippocampus membranes in the ex vivo assay; whole animal in the behavioural model)
T1 sequence (P19327 1-422): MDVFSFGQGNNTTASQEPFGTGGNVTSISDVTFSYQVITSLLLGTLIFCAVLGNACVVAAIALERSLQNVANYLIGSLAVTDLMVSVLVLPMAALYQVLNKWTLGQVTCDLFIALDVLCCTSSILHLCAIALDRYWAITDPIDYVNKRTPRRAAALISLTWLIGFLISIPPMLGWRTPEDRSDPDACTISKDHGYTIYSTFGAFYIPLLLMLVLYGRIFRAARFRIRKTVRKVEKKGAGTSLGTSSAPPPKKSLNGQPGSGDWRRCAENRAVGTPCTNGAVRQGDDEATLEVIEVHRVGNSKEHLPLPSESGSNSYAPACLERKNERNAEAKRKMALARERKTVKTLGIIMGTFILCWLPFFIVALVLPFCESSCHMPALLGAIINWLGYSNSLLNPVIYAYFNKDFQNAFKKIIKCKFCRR
Description: Ex vivo binding of [3H]-WAY-100635: 5-HT1A receptor occupancy in rat brain. The conditions noted are these: for [3H]-WAY-100635 remaining in membrane preparation: 3 mg/kg ip. The procedure: The serotonergic 5-HT1A receptor occupancy in vivo of the compounds of this invention was determined using ex vivo binding techniques. Rats were injected with a 3 mg/kg ip dose of Example 1 or vehicle and then sacrificed after 1, 24, 72, 168, and 336 hours. […] Tissue was prepared by homogenization and washed once with buffer. Serotonergic 5-HT1A receptors were measured in the membrane preparation using the standard 5-HT1A receptor antagonist [^3H]-WAY-100635 (85 Ci/mmol). Specific binding was determined in the presence of […] methiothepin. The ability of the test compounds to displace [^3H]-WAY-100635 from the 5-HT1A receptor was then determined and expressed as the fmol/mg protein of [^3H]-WAY-100635 remaining in the membrane preparation after treatment with the test compound.

Data set [2] concerns the target T1, 5-HT1A. The data set can be described thus: Fixed Responding Model (fixed-ratio 30 food schedule), antagonism of 8-OH-DPAT. The data set is classed as in vivo. The procedure: The ability of the compounds of this invention to function in vivo as 5-HT1A antagonists was assessed in rats using a Fixed Responding Model (Blackman, D., in, “Operant Conditioning: An Experimental Analysis of Behavior”, J. Butcher, Ed., Methuen and Co., Ltd., London). In this model rats are trained to respond (lever pressing) under a fixed-ratio 30 schedule of food presentation in order to receive a food pellet reinforcer. […] 5-HT1A antagonist activity is assessed by determining the test compound's ability to antagonize this decrease in response rate induced by administration of the agonist.

One may read the melting point as the temperature, or range, at which the solid turns liquid. `COc1ccccc1N1CCN(C[C@@H](CC2CCCCC2)NC(=O)C2(C)CCCCC2)CC1` (as salt: hydrochloride) (hydrate or solvate) [Example 1, 1-Methyl-cyclohexanecarboxylic acid {(1R)-1-cyclohexylmethyl-2-[4-(2-methoxyphenyl)-piperazin-1-yl]-ethyl}-amide hydrochloride hydrate] showed a melting point of 119 to 121 °C.

Take `COc1ccccc1N1CCN(C[C@@H](CC2CCCCC2)NC(=O)C2(C)CCCCC2)CC1` [Example 1, 1-Methyl-cyclohexanecarboxylic acid {(1R)-1-cyclohexylmethyl-2-[4-(2-methoxyphenyl)-piperazin-1-yl]-ethyl}-amide hydrochloride hydrate]: the “[3H]-WAY-100635 remaining in membrane preparation” value on 5-HT1A [1] (1 hour, cortex) is listed as 4.0 ± 0.1 fmol/mg protein; at 5-HT1A [1] (1 hour, striat.), 6.0 ± 0.3 fmol/mg protein; on 5-HT1A [1] (24 hour, cortex), 8.0 ± 0.6 fmol/mg protein; at 5-HT1A [1] (24 hour, striat.), 12.0 ± 2.7 fmol/mg protein; on 5-HT1A [1] (72 hours, cortex) it was 9.0 ± 0.6 fmol/mg protein; on 5-HT1A [1] (72 hours, striat.), 14.0 ± 2.3 fmol/mg protein. The “[3H]-WAY-100635 remaining in membrane preparation” value at 5-HT1A [1] (7 days, cortex) is on record as 7.0 ± 0.3 fmol/mg protein; on 5-HT1A [1] (7 days, striat.), 15.0 ± 1.7 fmol/mg protein; on 5-HT1A [1] (14 days, cortex) it was 11.0 ± 0.3 fmol/mg protein; at 5-HT1A [1] (14 days, striat.), 26.0 ± 0.6 fmol/mg protein. The “Duration of significant inhibition of WAY-100635 binding after a single administration” value at 5-HT1A [1] (single administration, ex vivo binding) is given as “up to 14 days”. In addition, on 5-HT1A [2] (3 mg/kg sc vs 8-OH-DPAT 1 mg/kg sc), the “Reversal of the effect of 8-OH-DPAT on response rate” value is “completely reverses”. For the same compound, the “Response Rate” value on 5-HT1A [2] (8-OH-DPAT (1 mg/kg sc) + test compound 3 mg/kg sc) worked out at 2.4 ± 0.3 responses/second; on 5-HT1A [2] (single dose 3 mg/kg sc, daily 8-OH-DPAT 1 mg/kg sc, Day 1), 2.4 ± 0.3 responses/second; on 5-HT1A [2] (single dose 3 mg/kg sc, daily 8-OH-DPAT 1 mg/kg sc, Day 4), 2.1 ± 0.3 responses/second; on 5-HT1A [2] (single dose 3 mg/kg sc, daily 8-OH-DPAT 1 mg/kg sc, Day 7) it was 2.0 ± 0.3 responses/second; at 5-HT1A [2] (single dose 3 mg/kg sc, daily 8-OH-DPAT 1 mg/kg sc, Day 11) it was 1.8 ± 0.2 responses/second; at 5-HT1A [2] (single dose 3 mg/kg sc, daily 8-OH-DPAT 1 mg/kg sc, Day 14), 1.7 ± 0.3 responses/second. The “Response Rate” value on 5-HT1A [2] (single dose 3 mg/kg sc, daily 8-OH-DPAT 1 mg/kg sc, Day 17) is 1.0 ± 0.2 responses/second; on 5-HT1A [2] (single dose 3 mg/kg sc, daily 8-OH-DPAT 1 mg/kg sc, Day 21), 0.7 ± 0.2 responses/second. The “Duration of significant inhibition of the 8-OH-DPAT-induced decrease in responding” value on 5-HT1A [2] (single dose 3 mg/kg sc, daily 8-OH-DPAT 1 mg/kg sc) is given as “up to 17 days”.
